In assay [1] the target is T1, cloned recombinant human HDAC-1 (Homo sapiens, UniProt Q13547).
T1 construct: made in house; host or cells: Baculovirus insect cell expression system
The assay can be described thus: Human HDAC-1 enzyme inhibition, Assay 1 ([3H]-acetylated histone substrate, scintillation counting). The class given is biochemical. In outline:
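Activity read as [3H]-acetic acid liberated from labeled substrate, ethyl acetate-extracted and scintillation-counted. Compounds preincubated 30 min at 4° C. with baculovirus-expressed, purified human HDAC-1. Dose-response curves give IC50 as concentration producing fifty percent of maximal inhibition.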

Assay [2] concerns acetylated histone H-4 in T24 human bladder cancer cells. Put plainly: Histone H4 acetylation in whole cells by immunoblots. In kind it is cell-based. Conditions: 16 h. A digest of the protocol:
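Acetylated histone H4 was quantified by densitometry of ECL-developed immunoblots, probed with a polyclonal antibody, of […] total histone from T24 cultures exposed 16 h to HDAC inhibitors.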
For orientation: A western blot detects proteins with antibodies after separation by electrophoresis.

Another assay concerns HCT116 cells. Put plainly: MTT assay. The class given is cell-based. Conditions: Homo sapiens. A digest of the protocol: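 Read-out: MTT (0.5 mg/ml final, 4 h) after solubilization in 50% DMF/20% SDS, pH 4.7, with OD translated into cell number via the line's growth curve. Compound treatment lasted 72 h at 37 °C in 5% CO2, starting a day after plating.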
On the technique in general: Tetrazolium assays rely on reduction of a dye to a coloured formazan, in cell work by metabolically active cells.

A further assay concerns the target HDAC-1 (Homo sapiens, UniProt Q13547). The assay can be described thus: Human HDAC-1 enzyme inhibition, Assay 2 (Boc-Lys(Ac)-AMC, Fluor-de-Lys fluorescence; compounds 604-617). In kind it is biochemical. Conditions: read-out: HDAC1 IC50. The protocol:
Assay 2. The following protocol was also used to assay the compounds of the invention. In the assay, the buffer used was 25 mM HEPES, pH 8.0, 137 mM NaCl, 2.7 mM […], 1 mM MgCl2 and the substrate was Boc-Lys(Ac)-AMC in a 50 mM stock solution in DMSO. The enzyme stock solution was 4.08 μg/mL in buffer. The compounds were pre-incubated (2 μl in DMSO diluted to 13 μl in buffer for transfer to assay plate) with enzyme (20 μl of 4.08 μg/ml) for 10 minutes at room temperature (35 μl pre-incubation volume). The mixture was pre-incubated for 5 minutes at room temperature. The reaction was started by bringing the temperature to 37° C. and adding […] substrate. Total reaction volume was 50 μl. […] A plate was incubated in the dark for 10 minutes at room temperature before reading (λEx=360 nm, λEm=470 nm, Cutoff filter at 435 nm). Assay 2 was used to measure HDAC activity of compounds 604-617 (Table 5). HDAC activity of the remaining compounds was measured by assay 1.

The mark [3] stands for this setting: Table 5F, read-out: Human HDAC-1 IC50.
[4] abbreviates: T-24, Table 5F, read-out: H4 Ac (T24) EC50.
The mark [5] stands for this setting: HCT-116, 72 h, Table 5F, HCT116 cells, 72 hours.

From patent US7868204B2, “Inhibitors of histone deacetylase” (MethylGene Inc., priority 2001, dated 2011) come the findings set out here.

Read-outs that look alike come from different tables or passages of the source. Bounds are passed on as bounds.

Chain of HDAC-1 (Q13547 whole entry): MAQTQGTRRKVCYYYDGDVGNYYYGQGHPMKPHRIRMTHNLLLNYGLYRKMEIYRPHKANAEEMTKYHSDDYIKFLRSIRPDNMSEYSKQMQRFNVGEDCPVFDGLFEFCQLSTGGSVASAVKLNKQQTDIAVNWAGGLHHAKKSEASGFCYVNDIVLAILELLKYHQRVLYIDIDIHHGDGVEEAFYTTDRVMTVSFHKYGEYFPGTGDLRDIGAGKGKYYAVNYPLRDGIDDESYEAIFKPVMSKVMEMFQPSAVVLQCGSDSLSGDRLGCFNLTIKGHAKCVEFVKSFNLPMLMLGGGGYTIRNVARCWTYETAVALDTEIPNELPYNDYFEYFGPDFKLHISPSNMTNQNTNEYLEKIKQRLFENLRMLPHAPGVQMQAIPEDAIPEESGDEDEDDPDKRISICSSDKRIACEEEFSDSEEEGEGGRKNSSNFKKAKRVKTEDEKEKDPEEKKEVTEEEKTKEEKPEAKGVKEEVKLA
T1 sequence (Q13547 whole entry): as above

By IC50 is commonly meant the point on the concentration scale where inhibition reaches its midpoint. In general, EC50 refers to the midpoint of the concentration-response curve. Consider `COc1cc(NCc2ccc(/C=C/C(=O)Nc3cscc3N)cc2)cc(OC)c1OC` [Cpd 570], for which the IC50 was found to be 6000 nM in assay [1] (Table 5d, read-out: HDAC-1 IC50) and 600 nM in the assay on HCT116 cells (HCT-116, Table 5d, HCT116 cells, 72 hours). The EC50 in assay [2] (T-24, Table 5d, read-out: H4Ac(T24) EC50) was 2000 nM.
As for `Nc1cscc1NC(=O)c1ccc(CNc2nc3ccc(OCCN4CCOCC4)cc3s2)cc1` [Cpd 573, N-(4-Amino-thiophen-3-yl)-4-{[6-(2-morpholin-4-yl-ethoxy)-benzothiazol-2-ylamino]-methyl}-benzamide], the values for the half-maximal inhibitory concentration (IC50) (in assay [1] (setting [3]); in the assay on HCT116 cells (setting [5])) were 7000 nM and 400 nM, respectively. Also, the EC50 in assay [2] (setting [4]) came out at 1000 nM.
On to `COc1cc(NCc2ccc(C(=O)Nc3cscc3N)cc2)cc(OC)c1OC` [Cpd 574, N-(4-Amino-thiophen-3-yl)-4-[(3,4,5-trimethoxy-phenylamino)-methyl]-benzamide], for which the IC50 in assay [1] (setting [3]) is 13000 nM; in the assay on HCT116 cells (setting [5]), 700 nM. Besides, the EC50 in assay [2] (setting [4]) turned out to be 3000 nM.
For `COc1ccc2[nH]c(SCc3ccc(C(=O)Nc4cscc4N)cc3)nc2c1` [Cpd 575, N-(4-Amino-thiophen-3-yl)-4-(5-methoxy-1H-benzoimidazol-2-ylsulfanyl-methyl)-benzamide] the same measures were 2000 nM, 200 nM and 1000 nM.
For `Cc1ccc(C#N)c(OCc2ccc(C(=O)Nc3ccccc3N)cc2)n1` [Cpd 577, N-(2-Amino-phenyl)-4-(3-cyano-6-methyl-pyridin-2-yloxymethyl)-benzamide], the values for the IC50 (in assay [1] (setting [3]); with HCT116 cells (setting [5])) were 2000 nM and 500 nM, respectively. For the same compound, the EC50 in assay [2] (setting [4]) was 2000 nM.
Turning to `CC(=O)Nc1sc(Cc2ccc(C(=O)Nc3ccccc3N)cc2)cc1C(N)=O` [Cpd 579, 2-Acetylamino-5-[4-(2-amino-phenyl-carbamoyl)-benzyl]-thiophene-3-carboxamide], the IC50 in assay [1] (setting [3]) came to 2000 nM; with HCT116 cells (setting [5]) it was 500 nM. For the same compound, in assay [2] (setting [4]), the EC50 was 1000 nM.
`CNc1nc2ccc(NCc3ccc(C(=O)Nc4ccccc4N)cc3)cc2n1C` [Cpd 580]: the figures for the 50% inhibitory concentration (IC50) (in assay [1] (setting [3]); in the assay on HCT116 cells (setting [5])) were 4000 nM and 300 nM, respectively. Further, the EC50 in assay [2] (setting [4]) was less than 1000 nM.
For `COc1ccc2[nH]c(SCc3ccc4oc(C(=O)Nc5ccccc5N)cc4c3)nc2c1` [Cpd 591, 5-(5-Methoxy-1H-benzoimidazol-2-ylsulfanyl-methyl)-benzofuran-2-carboxylic acid (2-amino-phenyl)amide] the same measures were 4000 nM, 300 nM and less than 1000 nM.
In the case of `COc1cc(CNc2ccc3oc(C(=O)Nc4ccccc4N)cc3c2)cc(OC)c1OC` [Cpd 592, 5-(3,4,5-Trimethoxy-benzylamino)-benzofuran-2-carboxylic acid (2-amino-phenyl)-amide], the IC50 in assay [1] (setting [3]) was 5000 nM; in the assay on HCT116 cells (setting [5]), 400 nM. For the same compound, the EC50 in assay [2] (setting [4]) was less than 1000 nM.
Turning to `Cc1sc2ncn(Cc3ccc(C(=O)Nc4ccccc4N)cc3)c(=O)c2c1C` [compound 259, N-(2-Amino-phenyl)-4-(5,6-dimethyl-4-oxo-4H-thieno[2,3-d]pyrimidin-3-ylmethyl)-benzamide], the 50% inhibitory concentration (IC50) was 3000 nM in assay [1] (setting [3]) and 300 nM in the assay on HCT116 cells (setting [5]). Further, the EC50 in assay [2] (setting [4]) amounted to 1000 nM.
For `Nc1ccccc1NC(=O)c1ccc(Cc2coc3ccccc3c2=O)cc1` [compound 262, N-(2-Amino-phenyl)-4-(4-oxo-4H-chromen-3-ylmethyl)-benzamide] the same measures were 500 nM, 300 nM and 1000 nM.
Regarding `Nc1ccccc1NC(=O)c1ccc(CC2COc3ccccc3C2)cc1` (centres unmarked) [compound 265, N-(2-Amino-phenyl)-4-chroman-3-ylmethyl-benzamide], the IC50 (in assay [1] (setting [3]); in the assay on HCT116 cells (setting [5])) was 2000 nM in each case. For the same compound, the EC50 in assay [2] (setting [4]) amounted to 3000 nM.
`Nc1ccccc1NC(=O)c1ccc(CC2Oc3ccccc3NC2=O)cc1` (centres unmarked) [compound 270, N-(2-Amino-phenyl)-4-(3-oxo-3,4-dihydro-2H-benzo[1,4]oxazin-2-ylmethyl)-benzamide]: the figures for the IC50 (in assay [1] (setting [3]); in the assay on HCT116 cells (setting [5])) were 4000 nM and 1000 nM, respectively. In assay [2] (setting [4]), the concentration giving a half-maximal response (EC50) was found to be 5000 nM.
For `Nc1ccccc1NC(=O)c1ccc(CC2Cc3ccccc3C2=O)cc1` (centres unmarked) [compound 272, N-(2-Amino-phenyl)-4-(1-oxo-indan-2-ylmethyl)-benzamide] the same measures were 2000 nM, 600 nM and less than 1000 nM.
`Nc1ccccc1NC(=O)c1ccc(CC2Cc3ccccc3C2O)cc1` (centres unmarked) [compound 275, N-(2-Amino-phenyl)-4-(1-hydroxy-indan-2-ylmethyl)-benzamide]: the concentration for half-maximal inhibition (IC50) turned out to be 4000 nM in assay [1] (setting [3]) and 900 nM in the assay on HCT116 cells (setting [5]). In assay [2] (setting [4]), the 50% effective concentration (EC50) was 2000 nM.
In the same order, the values of `Cc1nn(-c2ccccc2)c(C)c1Cc1ccc(C(=O)Nc2ccccc2N)cc1` [compound 277, N-(2-Amino-phenyl)-4-(3,5-dimethyl-1-phenyl-1H-pyrazol-4-ylmethyl)-benzamide] are 4000 nM, 300 nM and 1000 nM.
In the same order, the values of `CC(=O)Nc1sc(Cc2ccc(C(=O)Nc3ccccc3N)cc2)c(C)c1C#N` [compound 281, N-(2-Amino-phenyl)-4-(5-acetylamino-4-cyano-3-methyl-thiophen-2-ylmethyl)-benzamide] are 500 nM, 600 nM and 1000 nM.
For the compound `COc1cc(N2CC(c3ccc(C(=O)Nc4ccccc4N)cc3)OC2=O)cc(OC)c1OC` (centres unmarked) [compound 297, N-(2-Amino-phenyl)-4-[2-oxo-3-(3,4,5-trimethoxy-phenyl)-oxazolidin-5-yl]-benzamide], the 50% inhibitory concentration (IC50) in assay [1] (setting [3]) was determined as 7000 nM; with HCT116 cells (setting [5]), 400 nM. For the same compound, the EC50 in assay [2] (setting [4]) came to 1000 nM.
In the same order, the values of `COc1ccc2[nH]c(SCc3ccc(C(=O)Nc4ccccc4O)cc3)nc2c1` [compound 311] are 900 nM, 700 nM and 1000 nM.
Turning to `COc1ccc(N(Cc2ccc(C(=O)Nc3ccccc3N)cc2)C(=O)Nc2ccc(SC)cc2)cc1OC` [compound 317, N-(2-Aminophenyl)-4-[1-(3,4-dimethoxyphenyl)-3-(4-methylsulfanylphenyl)-ureidomethyl]-benzamide], the 50% inhibitory concentration (IC50) was found to be 2000 nM in assay [1] (setting [3]) and 300 nM in the assay on HCT116 cells (setting [5]). Further, in assay [2] (setting [4]), the EC50 was determined as 1000 nM.
For `COc1ccc2nc(SCc3ccc(C(=O)Nc4ccccc4N)cc3)[nH]c2c1` [compound 376, N-(2-Amino-phenyl)-4-(5-methoxy-1H-benzimidazol-2-yl-sulfanylmethyl)-benzamide] the same measures were 3000 nM, 100 nM and 1000 nM.
For `COc1ccc(NCc2ccc3oc(C(=O)Nc4ccccc4N)cc3c2)cc1OC` [compound 587, 5-[(3,4-Dimethoxy-phenylamino)-methyl]-benzofuran-2-carboxylic acid (2-amino-phenyl)-amide] the same measures were 5000 nM, 800 nM and 2000 nM.
In the same order, the values of `COc1cc(CNc2ccc3sc(C(=O)Nc4ccccc4N)cc3c2)cc(OC)c1OC` [compound 590, 5-(3,4,5-Trimethoxy-benzylamino)-benzo[b]thiophene-2-carboxylic acid (2-amino-phenyl)-amide] are 2000 nM, 2000 nM and 3000 nM.
Take `Nc1ccccc1NC(=O)c1ccc(N2CC[C@@H](Oc3cccnc3)C2)cc1` [compound 607, (R)-N-(2-aminophenyl)-4-(3-(pyridin-3-yloxy)pyrrolidin-1-yl)benzamide]: the half-inhibitory concentration (IC50) turned out to be 639 nM on HDAC-1 and 1000 nM in the assay with HCT116 cells (HCT-116, HCT116 cells).
Turning to `Nc1ccccc1NC(=O)c1ccc(N2CC[C@@H](Nc3ccccc3)C2)cc1` [compound 609, (R)-N-(2-aminophenyl)-4-(3-(phenylamino)pyrrolidin-1-yl)benzamide], the 50% inhibitory concentration (IC50) stood at 1220 nM on HDAC-1 and 2000 nM in the assay with HCT116 cells (HCT-116, HCT116 cells).
In the same order, the values of `Nc1ccccc1NC(=O)c1ccc(N2CC[C@H](Oc3ccccc3)C2)cc1` [compound 610, (S)-N-(2-aminophenyl)-4-(3-phenoxypyrrolidin-1-yl)benzamide] are 266 nM and 750 nM.
For `COC(=O)c1ccc(O[C@H]2CCN(c3ccc(C(=O)Nc4ccccc4N)cc3)C2)cc1` [compound 611, (S)-methyl-4-(1-(4-(2-aminophenylcarbamoyl)phenyl)pyrrolidin-3-yloxy)benzoate] the same measures were 97.6 nM and 600 nM.
